According to patent US20040043047A1, “Cosmetic or dermatological compositions containing at least one substance for increasing the functionality and/or expression of the CD44 membrane receptors of skin cells” (priority 1999, published 2004):
Where two headings read alike, the source gives them in different places. Marks after values point to notes of the source that are not given here.

Experiments:
human keratinocytes = settings: for Fluorescence measured (FU) Mean: Table III; for Amount of fluorescence measured compared with calcium chloride at equivalent molarity: 5 and 10 mM
Experimental: I-Measurement of the Amount of Haluronic Acid Bound to the Surface of Keratinocytes
The following steps are performed:
15,000 human keratinocytes are inoculated in culture wells (96-well plates) in a K-SFM medium (Gibco).
2—Production of Confluent Cultures:
Incubation of the cultures for 72 hours at 37° C. under a humidity-saturated atmosphere, with 5% CO2, with renewal of the culture medium after 48 h.
3—Binding of Hyaluronic Acid:
Incubation of the cells for 4 hours at 4° C. with hyaluronic acid covalently bonded to a fluorochrome, […] (HA-FA), synthesized in the laboratory according to the technique described in “Preparation and properties of fluoresceine-labelled hyaluronate; carbohydrate research, 1975, Vol. 44, pp. 251-257”, prepared in K-SFM containing 0.2% sodium azide.
4—Evaluation of the Activity of the Test Products:
The products for which it is desired to evaluate the action on the amount of HA-FA bound by keratinocytes are added to the incubation medium at the start of incubation. Controls are carried out in the absence of the products to be evaluated and in the presence of their excipient which was used to dissolve them.
5—Nonspecific Binding of HA-FA.
In order to determine the nonspecific labelling, the same experimental conditions as in step 3 are rigorously used, but with the addition of 200 times more hyaluronic acid not labelled with a fluorochrome.
6—Fluorescence Quantification:
After the HA-FA binding medium has been removed, two rinses with PBS are carried out, after which the fluorescence bound to the keratinocytes is measured at an excitation wavelength λex 485 nm and an emission wavelength λem=538 nm.
7—Expressing the Results:
The results are expressed in fluorescence units (“specific fluorescence”), with the nonspecific fluorescence being deducted (see 5-).
To do this, the fluorescence values measured are reduced to the cellular DNA content, carried out according to the DAPI method (see III-).

CD44 receptor = test: Functionality of the CD44 receptor: hyaluronic acid binding by keratinocytes after 48 hours of treatment, normalized to cellular DNA (protocol II-9); format: cell-based, human; settings: 0.22 mM
Experimental: The products whose activity on the expression of the CD44 receptor it is desired to evaluate are added to the culture medium 24 hours after inoculation of the cells. To do this, the inoculation medium is removed and replaced with an identical medium containing the test substance. The incubation then continues for 48 hours. Controls are carried out in the absence of the products to be evaluated, and in the presence of the excipient which was used to dissolve them. All the factors are otherwise equal.
9—Measurement of the functionality of the CD44 receptor.
(§1) The values thus obtained are normalized, taking account of the amount of cellular material present in the wells. To do this, the cellular DNA content is measured by the DAPI method (see protocol below).
III—Quantification of the Cellular DNA with […] Dihydrochloride (DAPI)
The quantification of the cellular DNA may be carried out directly on the cultures after quantification of the CD44 expression.
30 μl of methanol at −20° C. are added to each well for 1 min.
After rinsing twice with PBS, a 20 μg/ml DAPI solution is added over 15 minutes at ambient temperature and in darkness.
3—Fluorescence Quantification:
After rinsing twice with PBS, the fluorescence present in the wells is read with 50 μl of PBS at λ excitation=355 nm and λemission=460 nm.

CD44 = test: Expression of the hyaluronic acid receptor (CD44) at the surface of keratinocytes, anti-CD44 antibody labelling normalized to cellular DNA (protocol II); format: cell-based, human; settings: 0.22 mM
Experimental: II—Measurement of the Expression of the Hyaluronic Acid Receptor (CD44) at the Surface of Keratinocytes
Steps 1 and 2 are identical to steps 1 and 2 of I.
3—Binding of the cells to 2% paraformaldehyde in PBS containing calcium and magnesium for 5 minutes at ambient temperature.
4—Saturation of the Nonspecific Antigen-Antibody Binding Sites:
After rinsing twice with PBS, the cells are incubated with PBS saturation medium with calcium and magnesium supplemented with 5% v/v of calf serum and 0.05% w/v of sodium azide, for 1 hour at ambient temperature. […]
7—Fluorescence Quantification:
After rinsing twice with the saturation medium, the fluorescence present in the wells is read with 50 μl of PBS at λ excitation=544 nm and k emission=590 nm. […]
The products whose activity on the expression of the CD44 receptor it is desired to evaluate are added to the culture medium 24 hours after inoculation of the cells. […] Controls are carried out in the absence of the products to be evaluated, and in the presence of the excipient which was used to dissolve them. […]
as §1
III—Quantification of the Cellular DNA with […] Dihydrochloride (DAPI) […]
3—Fluorescence Quantification: […]

O=C([O-])[C@H](O)[C@@H](O)[C@H](O)[C@H](O)CO.[Na+] [sodium gluconate]
Fluorescence measured (FU) Mean (human keratinocytes; sodium gluconate 10 mM with CaCl2 2.5 mM): 27 FU
Fluorescence measured (FU) Mean (human keratinocytes; sodium gluconate 10 mM with CaCl2 5 mM): 84* FU
Fluorescence measured (FU) Mean (human keratinocytes; sodium gluconate 10 mM with CaCl2 10 mM): 2,186* FU
Fluorescence measured (FU) Mean (human keratinocytes; sodium gluconate 10 mM, CaCl2 0 mM): 6 FU
Increase of the effects of calcium on hyaluronic acid binding, factor (human keratinocytes; relatively optimized conditions (10 mM CaCl2 / 2.5 mM sodium gluconate)): ≥ 12

CC(O)C(=O)[O-].[Na+] (centres unmarked) [Sodium lactate, sodium lactate]
Binding of hyaluronic acid to the surface of human keratinocytes Binding (FU)/cellular DNA (FU) Mean (CD44 receptor; 48 hours of treatment, control 59 ± 8.5): 105 ± 24
Binding of hyaluronic acid to the surface of human keratinocytes % increase (CD44 receptor; 48 hours, versus 0 mM control): 78%
Expression of CD44 at the surface of human keratinocytes % increase (CD44; 48 hours, versus 0 mM control): 32%
Expression of CD44 at the surface of human keratinocytes CD44 (FU)/cellular DNA (FU) labelling Mean (CD44; cells treated for 48 hours, control 189 ± 28): 249 ± 31

manganese chloride [MnCl2]
Amount of fluorescence measured compared with calcium chloride at equivalent molarity (human keratinocytes): significantly greater

calcium gluconate
Amount of fluorescence measured compared with calcium chloride at equivalent molarity (human keratinocytes): significantly greater
